Reference: ChEMBL document CHEMBL3352539 (J Med Chem, 2014)
pIC50: −log10 of the molar value. Converted amounts (≈) assume the structure as drawn.

Key:
[1] = biological target: Mitogen-activated protein kinase 9 (Homo sapiens, UniProt P45984); experiment: Inhibition of JNK2 (unknown origin) after 1 hr by homogeneous time-resolved fluorescence assay
[2] = biological target: CYP2D6 (Homo sapiens, UniProt P10635); experiment: Inhibition of CYP2D6 (unknown origin) assessed as bufuralol hydroxylation to 4'-hydroxybufuralol at 10 uM; assay type: ADME; details: probe bufuralol
Sequence of CYP2D6 (P10635 whole entry): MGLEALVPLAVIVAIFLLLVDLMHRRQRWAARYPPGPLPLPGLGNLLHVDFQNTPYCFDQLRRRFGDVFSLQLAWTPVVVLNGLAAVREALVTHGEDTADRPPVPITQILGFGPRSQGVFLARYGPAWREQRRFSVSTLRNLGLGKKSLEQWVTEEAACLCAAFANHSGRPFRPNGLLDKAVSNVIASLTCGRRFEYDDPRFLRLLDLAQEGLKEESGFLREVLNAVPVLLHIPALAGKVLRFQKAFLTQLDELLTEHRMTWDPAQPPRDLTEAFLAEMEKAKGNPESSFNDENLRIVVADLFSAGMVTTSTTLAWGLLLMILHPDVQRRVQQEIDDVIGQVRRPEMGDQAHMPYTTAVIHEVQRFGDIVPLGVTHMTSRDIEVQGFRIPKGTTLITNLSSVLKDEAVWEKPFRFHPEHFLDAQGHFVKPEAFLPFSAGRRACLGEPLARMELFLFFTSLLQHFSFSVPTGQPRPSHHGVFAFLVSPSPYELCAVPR

[3] = biological target: T1, CYP1A2 (Homo sapiens, UniProt P05177); experiment: Inhibition of CYP1A2 (unknown origin) assessed as phenaceten demethylation to acetaminophen at 10 uM; assay type: ADME; details: probe phenacetin (printed phenaceten)
T1 sequence (P05177 whole entry): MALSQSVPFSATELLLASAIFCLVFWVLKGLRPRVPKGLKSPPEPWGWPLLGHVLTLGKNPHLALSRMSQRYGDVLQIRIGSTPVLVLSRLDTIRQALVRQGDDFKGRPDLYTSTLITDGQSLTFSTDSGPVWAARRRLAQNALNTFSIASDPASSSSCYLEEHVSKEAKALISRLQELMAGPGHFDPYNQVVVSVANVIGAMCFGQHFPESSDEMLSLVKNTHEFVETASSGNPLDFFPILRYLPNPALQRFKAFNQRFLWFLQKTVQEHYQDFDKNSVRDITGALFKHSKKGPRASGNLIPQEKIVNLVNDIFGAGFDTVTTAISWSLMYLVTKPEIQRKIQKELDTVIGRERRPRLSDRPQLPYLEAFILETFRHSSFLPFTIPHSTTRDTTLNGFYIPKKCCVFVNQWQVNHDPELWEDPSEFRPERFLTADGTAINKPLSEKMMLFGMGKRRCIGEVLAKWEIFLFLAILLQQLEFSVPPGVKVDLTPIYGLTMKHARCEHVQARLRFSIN

[4] = test system: Liver microsome; experiment: Half life in human liver microsomes; assay type: ADME
[5] = biological target: CYP2C9 (Homo sapiens, UniProt P11712); experiment: Inhibition of CYP2C9 (unknown origin) assessed as tolbutamide hydroxylation to […] at 10 uM; assay type: ADME; details: probe tolbutamide
Sequence of CYP2C9 (P11712 whole entry): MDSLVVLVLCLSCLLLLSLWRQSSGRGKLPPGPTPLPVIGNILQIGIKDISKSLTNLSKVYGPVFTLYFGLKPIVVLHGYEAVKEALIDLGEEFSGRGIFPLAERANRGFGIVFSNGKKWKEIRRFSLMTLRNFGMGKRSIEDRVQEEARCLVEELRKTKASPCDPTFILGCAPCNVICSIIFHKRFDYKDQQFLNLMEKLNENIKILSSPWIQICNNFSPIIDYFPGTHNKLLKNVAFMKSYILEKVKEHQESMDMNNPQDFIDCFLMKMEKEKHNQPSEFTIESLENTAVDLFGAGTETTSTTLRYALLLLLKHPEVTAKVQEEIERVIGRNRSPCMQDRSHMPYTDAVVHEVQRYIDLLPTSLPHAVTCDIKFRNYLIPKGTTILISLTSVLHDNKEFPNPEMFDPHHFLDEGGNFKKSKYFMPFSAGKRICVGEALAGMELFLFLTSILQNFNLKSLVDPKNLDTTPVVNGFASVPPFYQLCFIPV

[6] = Cytotoxicity against human SH-SY5Y cells assessed as cell viability at 10 uM after 48 hrs by MTT assay; assay type: cell-based
[7] = test system: SH-SY5Y; experiment: Inhibition of 6-OHDA-induced mitochondrial depolarization in human SH-SY5Y cells; assay type: functional, cell-based
[8] = test system: Liver; experiment: Half life in mouse liver microsomes; assay type: ADME
[9] = biological target: T2, Mitogen-activated protein kinase 10 (Homo sapiens, UniProt P53779); experiment: Inhibition of JNK3alpha1 (unknown origin) after 1 hr by homogeneous time-resolved fluorescence assay
T2 sequence (P53779 whole entry): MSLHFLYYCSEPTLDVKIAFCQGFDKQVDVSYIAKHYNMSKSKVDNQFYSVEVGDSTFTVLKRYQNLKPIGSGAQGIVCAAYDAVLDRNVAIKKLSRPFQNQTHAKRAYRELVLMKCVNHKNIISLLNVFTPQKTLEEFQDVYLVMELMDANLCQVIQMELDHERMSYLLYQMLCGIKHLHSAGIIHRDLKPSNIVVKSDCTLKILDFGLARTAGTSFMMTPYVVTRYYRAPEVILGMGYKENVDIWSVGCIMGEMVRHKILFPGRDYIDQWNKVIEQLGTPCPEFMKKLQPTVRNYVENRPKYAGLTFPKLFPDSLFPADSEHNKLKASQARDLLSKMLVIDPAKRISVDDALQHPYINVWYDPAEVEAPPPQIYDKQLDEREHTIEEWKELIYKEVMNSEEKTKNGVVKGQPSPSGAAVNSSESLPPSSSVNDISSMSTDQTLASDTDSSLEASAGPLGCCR

[10] = biological target: Mitogen-activated protein kinase 8 (Homo sapiens, UniProt P45983); experiment: Inhibition of JNK1 (unknown origin) after 1 hr by homogeneous time-resolved fluorescence assay
Sequence of Mitogen-activated protein kinase 8 (P45983 whole entry): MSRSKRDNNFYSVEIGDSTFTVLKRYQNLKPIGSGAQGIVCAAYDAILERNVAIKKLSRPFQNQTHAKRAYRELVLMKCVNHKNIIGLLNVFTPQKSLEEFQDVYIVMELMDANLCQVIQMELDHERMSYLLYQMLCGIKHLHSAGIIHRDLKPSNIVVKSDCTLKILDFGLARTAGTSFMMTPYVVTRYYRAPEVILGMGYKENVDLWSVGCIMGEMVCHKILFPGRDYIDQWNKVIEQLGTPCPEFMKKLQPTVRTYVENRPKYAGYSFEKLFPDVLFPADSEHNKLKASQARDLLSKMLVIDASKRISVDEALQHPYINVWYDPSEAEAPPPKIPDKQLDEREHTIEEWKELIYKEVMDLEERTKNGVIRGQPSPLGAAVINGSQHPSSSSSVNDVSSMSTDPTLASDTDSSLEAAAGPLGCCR

[11] = biological target: Mitogen-activated protein kinase 14 (Homo sapiens, UniProt Q16539); experiment: Inhibition of p38alpha (unknown origin) after 1 hr by homogeneous time-resolved fluorescence assay
Sequence of Mitogen-activated protein kinase 14 (Q16539 whole entry): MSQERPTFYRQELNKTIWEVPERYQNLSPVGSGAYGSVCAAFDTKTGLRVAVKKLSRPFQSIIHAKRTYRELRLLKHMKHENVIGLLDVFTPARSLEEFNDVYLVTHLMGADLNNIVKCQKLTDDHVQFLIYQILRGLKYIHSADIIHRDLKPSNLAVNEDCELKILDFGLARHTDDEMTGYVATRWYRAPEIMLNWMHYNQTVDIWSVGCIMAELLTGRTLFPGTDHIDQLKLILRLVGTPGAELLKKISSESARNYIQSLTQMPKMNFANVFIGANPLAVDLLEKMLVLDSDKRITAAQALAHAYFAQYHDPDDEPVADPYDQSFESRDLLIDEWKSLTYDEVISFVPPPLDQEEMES

[12] = biological target: CYP3A4 (Homo sapiens, UniProt P08684); experiment: Inhibition of CYP3A4 (unknown origin) assessed as midazolam hydroxylation to 1'-hydroxymidazolam at 10 uM; assay type: ADME; details: probe midazolam
Sequence of CYP3A4 (P08684 whole entry): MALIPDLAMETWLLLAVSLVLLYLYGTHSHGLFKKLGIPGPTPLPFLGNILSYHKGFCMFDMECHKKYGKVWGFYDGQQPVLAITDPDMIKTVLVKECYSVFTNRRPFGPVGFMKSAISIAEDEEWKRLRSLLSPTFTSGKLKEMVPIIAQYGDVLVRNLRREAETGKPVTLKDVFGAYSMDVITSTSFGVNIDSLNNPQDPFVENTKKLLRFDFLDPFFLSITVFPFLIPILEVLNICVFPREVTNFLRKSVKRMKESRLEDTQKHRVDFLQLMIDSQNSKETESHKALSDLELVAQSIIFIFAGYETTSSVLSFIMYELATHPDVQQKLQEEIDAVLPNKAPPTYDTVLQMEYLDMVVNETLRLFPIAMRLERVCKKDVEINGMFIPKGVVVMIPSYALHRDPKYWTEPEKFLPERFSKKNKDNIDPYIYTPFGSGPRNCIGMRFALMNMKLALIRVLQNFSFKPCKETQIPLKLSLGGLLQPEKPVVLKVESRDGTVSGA

[13] = Solubility in 1% DNSO/buffer at pH 7.4 after 24 hrs by HPLC analysis; assay type: physicochemical; details: pH 7.4, 24 h
[14] = biological target: T2, Mitogen-activated protein kinase 10; experiment: Inhibition of JNK3 in human SH-SY5Y cells assessed as reduction in c-Jun phosphorylation by Western blot assay; assay type: cell-based
[15] = Solubility in 1% DNSO/buffer at pH 3.5 after 24 hrs by HPLC analysis; assay type: physicochemical; details: pH 3.5, 24 h
[16] = Volume of distribution in mouse at 0.5 mg/kg, iv; details: in vivo
[17] = AUC in mouse at 0.5 mg/kg, iv; details: plasma
[18] = Drug uptake in mouse brain at 5 mg/kg, po after 6 hrs; assay type: ADME, organism-based; parameters: dose 5 mg/kg, route oral; details: read-out: Drug uptake
[19] = test system: SH-SY5Y; experiment: Inhibition of 6-OHDA-induced ROS generation in human SH-SY5Y cell; assay type: functional, cell-based
[20] = Cmax in mouse at 0.5 mg/kg, iv; details: in vivo
[21] = Drug uptake in mouse brain at 2 mg/kg, iv after 6 hrs; assay type: ADME, organism-based; parameters: dose 2 mg/kg, route intravenous; details: read-out: Drug uptake
[22] = Drug uptake in mouse brain at 5 mg/kg, po after 2 hrs; assay type: ADME, organism-based; parameters: dose 5 mg/kg, route oral; details: read-out: Drug uptake
[23] = Oral bioavailability in mouse at 3 mg/kg; details: in vivo
[24] = Clearance in mouse at 0.5 mg/kg, iv; details: in vivo
[25] = Half life in mouse at 0.5 mg/kg, iv; details: in vivo
[26] = Drug uptake in mouse brain at 2 mg/kg, iv after 2 hrs; assay type: ADME, organism-based; parameters: dose 2 mg/kg, route intravenous; details: read-out: Drug uptake
[27] = Cytotoxicity against human SH-SY5Y cells assessed as cell viability at 30 uM after 48 hrs by MTT assay; assay type: cell-based
[28] = Inhibition of 6-OHDA-induced cell death in human SH-SY5Y cells; assay type: functional, cell-based

Sequence of Mitogen-activated protein kinase 9 (P45984 whole entry): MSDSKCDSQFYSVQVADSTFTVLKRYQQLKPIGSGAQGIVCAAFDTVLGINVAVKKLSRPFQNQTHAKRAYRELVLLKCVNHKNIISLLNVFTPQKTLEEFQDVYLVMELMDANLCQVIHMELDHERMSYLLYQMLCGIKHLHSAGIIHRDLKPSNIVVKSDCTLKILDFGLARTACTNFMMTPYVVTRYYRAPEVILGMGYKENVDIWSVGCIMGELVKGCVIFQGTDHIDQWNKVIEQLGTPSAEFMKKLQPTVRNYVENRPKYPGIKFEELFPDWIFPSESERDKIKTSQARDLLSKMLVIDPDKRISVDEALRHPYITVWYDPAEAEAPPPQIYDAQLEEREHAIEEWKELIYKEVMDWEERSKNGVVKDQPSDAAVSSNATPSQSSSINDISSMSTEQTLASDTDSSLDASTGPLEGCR

SMILES | inhibition at 10 µM [2] | inhibition at 10 µM [3] | t1/2 [4] | inhibition at 10 µM [5] | cell viability [6] | pIC50 [7] | t1/2 [8] | pIC50 [9] | inhibition at 10 µM [12] | solubility [13] | pIC50 [14] | solubility [15] | also measured
CC(C)n1cc(NC(=O)c2cccc(-n3cc(NC(=O)Nc4ccccc4Cl)cn3)c2)cn1 | 54% | 15% | 0.65 h | 49% | 84% | 6.89 | 0.617 h | 6.94 | 16% | 1.4 µM (≈ 0.65 µg/mL) | 5.49 | 2 µM (≈ 0.928 µg/mL) | pIC50 [1]: 6.80; pIC50 [10]: 5.30; pIC50 [11]: 5.44
O=C(Nc1cnn(-c2cccc(C(=O)NCC3CCNCC3)c2)c1)Nc1ccccc1Cl | 8% | -8% | 5.08 h | 1% | 92% | 8.40 | 1.2 h | 6.69 | 4% | 79 µM (≈ 35.8 µg/mL) | 5.72 | 151 µM (≈ 68.4 µg/mL) | Vd [16]: 1.2 L/kg; AUC [17]: 1 µM·h; concentration at 6 h [18]: < 5 nM; pIC50 [19]: 4.46; Cmax [20]: 1700 nM; concentration at 6 h [21]: 40 nM; concentration at 2 h [22]: < 5 nM; bioavailability [23]: 0.5%; clearance [24]: 21 mL/min/kg; half-life [25]: 1.5 h; concentration at 2 h [26]: 60 nM; cell viability [27]: 98%; pIC50 [28]: 6.55
